Assay [1] concerns the target T1, recombinant EphB4 (Homo sapiens, UniProt P54760).
T1 construct: recombinant active EphB4 (amino acids 563-987; Swiss-Prot Acc; No. P54760); purchased ProQinase GmbH 0178-0000-3
T1 sequence (P54760 563-987): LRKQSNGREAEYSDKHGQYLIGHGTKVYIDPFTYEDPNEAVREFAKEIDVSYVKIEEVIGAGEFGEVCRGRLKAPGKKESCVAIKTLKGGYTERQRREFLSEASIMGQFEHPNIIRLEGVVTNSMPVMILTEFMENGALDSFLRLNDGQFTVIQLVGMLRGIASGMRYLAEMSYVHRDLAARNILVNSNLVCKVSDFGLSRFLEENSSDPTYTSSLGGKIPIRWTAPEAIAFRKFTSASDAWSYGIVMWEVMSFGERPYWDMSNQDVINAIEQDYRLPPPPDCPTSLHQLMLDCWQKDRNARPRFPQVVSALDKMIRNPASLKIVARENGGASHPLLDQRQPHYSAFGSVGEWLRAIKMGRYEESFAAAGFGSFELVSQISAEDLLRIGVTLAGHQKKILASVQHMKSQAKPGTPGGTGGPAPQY
The assay is described as follows: In vitro EphB4 enzyme assay (Alphascreen). It counts as biochemical. The procedure: This assay detects inhibitors of EphB4-mediated phosphorylation of a polypeptide substrate using Alphascreen™ luminescence detection technology. Briefly, recombinant EphB4 was incubated with a biotinylated-polypeptide substrate (biotin-poly-GAT) in presence of magnesium-ATP. The reaction was stopped by addition of EDTA, together with streptavidin-coated donor beads which bind the biotin-substrate containing any phosphorylated tyrosine residues. Anti-phosphotyrosine antibodies present on acceptor beads bind to phosphorylated substrate, thus bringing the donor & acceptor beads into close proximity. Subsequent excitation of the donor beads at 680 nm generated singlet oxygen species that interact with a chemiluminescer on the acceptor beads, leading to light emission at 520-620 nm. The signal intensity is directly proportional to the level of substrate phosphorylation and thus inhibition is measured by a decrease in signal.
To ensure that each well contained a total of 120 nl DMSO the wells were all backfilled as required. […] The test range of compounds was 100× the required final concentration.
Assay plates were then incubated at room temperature for 1 hour.
For assays using compounds prepared via acoustic dispensing, the assay mix was adjusted such that the final assay volume of 12 ul contained the same concentration of reagent as 10 ul of assay mix used when aqueous compounds were tested.
The plates were sealed under natural lighting conditions, wrapped in aluminium foil and incubated in the dark for a further 20 hours.
The resulting assay signal was determined on the Perkin Elmer EnVision plate reader. The minimum value was subtracted from all values, and the signal plotted against compound concentration to generate IC50 data. The method used to generate the compound dilutions was recorded with the IC50 value in the database.

Assay [2] deals with T2, human EphB4 (Homo sapiens, UniProt P54760).
T2 construct: to generate full-length EphB4 containing a Myc-His tag at the C-terminus; expressed in transfected cells; EphB4-CHO)
T2 sequence (P54760 16-987): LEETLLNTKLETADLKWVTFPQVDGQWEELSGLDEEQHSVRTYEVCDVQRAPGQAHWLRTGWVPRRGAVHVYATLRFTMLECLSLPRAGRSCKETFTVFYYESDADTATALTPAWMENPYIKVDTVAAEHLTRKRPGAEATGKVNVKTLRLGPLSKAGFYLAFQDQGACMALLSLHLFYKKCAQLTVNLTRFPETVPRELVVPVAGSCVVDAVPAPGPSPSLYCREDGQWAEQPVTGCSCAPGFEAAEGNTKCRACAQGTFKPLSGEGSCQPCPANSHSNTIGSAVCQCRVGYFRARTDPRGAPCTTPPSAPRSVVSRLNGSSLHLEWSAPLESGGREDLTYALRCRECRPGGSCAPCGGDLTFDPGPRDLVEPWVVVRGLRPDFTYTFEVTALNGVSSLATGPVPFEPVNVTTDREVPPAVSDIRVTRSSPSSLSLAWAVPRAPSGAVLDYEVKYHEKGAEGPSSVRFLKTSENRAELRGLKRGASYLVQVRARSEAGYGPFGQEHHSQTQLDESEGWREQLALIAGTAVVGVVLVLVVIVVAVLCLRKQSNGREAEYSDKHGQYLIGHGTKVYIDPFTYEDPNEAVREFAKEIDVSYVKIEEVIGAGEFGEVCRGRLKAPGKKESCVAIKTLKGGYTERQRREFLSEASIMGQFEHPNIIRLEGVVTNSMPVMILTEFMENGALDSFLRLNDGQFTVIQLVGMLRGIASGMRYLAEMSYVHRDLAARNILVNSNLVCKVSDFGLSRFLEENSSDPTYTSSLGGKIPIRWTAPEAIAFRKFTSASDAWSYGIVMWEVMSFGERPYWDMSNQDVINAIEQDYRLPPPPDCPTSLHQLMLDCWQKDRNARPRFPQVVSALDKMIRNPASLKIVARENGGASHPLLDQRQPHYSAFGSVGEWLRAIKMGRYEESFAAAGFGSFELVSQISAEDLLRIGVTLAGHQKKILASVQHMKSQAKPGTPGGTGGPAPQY
As to the kind of experiment: In vitro EphB4 cell assay (EphB4 phosphorylation ELISA in EphB4-CHO cells). To be noted: ephrin-B2 stimulated EphB4 phosphorylation, read-out: Mean IC50 values obtained using Assay B. It counts as cell-based. The procedure:
The assay identifies inhibitors of cellular EphB4 by measuring a decrease in phosphorylation of EphB4 following treatment of cells with compound. The endpoint assay used a sandwich ELISA to detect EphB4 phosphorylation status. Briefly, Myc-tagged EphB4 from treated cell lysate was captured on the ELISA plate via an anti-c-Myc antibody. The phosphorylation status of captured EphB4 was then measured using a generic phosphotyrosine antibody conjugated to HRP via a calorimetric output catalysed by HRP, with level of EphB4 phosphorylation directly proportional to the colour intensity. Absorbance was measured spectrophotometrically at 450 nm.
Full length human EphB4 (Swiss-Prot Acc. No. P54760) was cloned using standard techniques from cDNA prepared from HUVEC using RT-PCR. The cDNA fragment was then sub-cloned into a pcDNA3.1 expression vector containing a Myc-His epitope tag to generate full-length EphB4 containing a Myc-His tag at the C-terminus (Invitrogen Ltd. Paisley, UK). CHO-K1 cells (LGC Promochem, Teddington, Middlesex, UK, Catalogue No. CCL-61) were maintained in HAM's F12 medium (Sigma-Aldrich Company Ltd, Gillingham, Dorset SP8 4XT, Catalogue No. N4888) containing 10% heat-inactivated foetal calf serum (PAA lab GmbH, Pasching, Austria Catalogue No. PAA-A15-043) and 1% glutamax-1 (Invitrogen Ltd., Catalogue No. 35050-038) at 37° C. with 5% CO2. CHO-K1 cells were engineered to stably express the EphB4-Myc-His construct using standard stable transfection techniques, to generate cells hereafter termed EphB4-CHO.
For each assay, 10,000 EphB4-CHO cells were seeded into each well of Costar 96-well tissue-culture plate (Fisher Scientific UK, Loughborough, Leicestershire, UK., Catalogue No. 3598) and cultured overnight in full media. On day 2, the cells were incubated overnight in 90 μl/well of media containing 0.1% Hyclone stripped-serum (Fisher Scientific UK, Catalogue No. SH30068.02). Test compounds were prepared as 10 mM stock solutions in DMSO (Sigma-Aldrich Company Ltd, Gillingham, Dorset SP8 4XT Catalogue No. 154938) and serially diluted with serum-free media to give a range of test concentrations at 10× the required final concentration. A 10 μl aliquot of each compound dilution was transferred to the cell plates in duplicate wells, and the cells incubated for 1 hour at 37° C. Each plate also contained control wells: a maximum signal was created using untreated cells, and minimum signal corresponding to 100% inhibition was created using wells containing a reference compound known to abolish EphB4 activity. […]

The mark [3] stands for this setting: compound preparation: Genesis (aqueous dilution).
The mark [4] stands for this setting: compound preparation: Echo (acoustic dispensing).

For the compound `CN(c1ccnc(Nc2cc(N3CCOCC3)nc(N3CCOCC3)c2)n1)c1ccc(F)c(Cl)c1F` [Example 2.1, N′-(3-chloro-2,4-difluoro-phenyl)-N-(2,6-dimorpholin-4-ylpyridin-4-yl)-N′-methyl-pyrimidine-2,4-diamine], the half-maximal inhibitory concentration (IC50) in assay [1] (setting [3]) was determined as 1120 nM; in assay [2], 8 nM. Take `Cc1ccc(CO)cc1N(C)c1ccnc(Nc2cc(Cl)nc(N3CCOCC3)c2)n1` [Example 4.3, [3-[[2-[(2-chloro-6-morpholin-4-yl-pyridin-4-yl)amino]pyrimidin-4-yl]-methyl-amino]-4-methyl-phenyl]methanol]: the IC50 in assay [1] (setting [3]) came to 473 nM.

Turning to `COc1ccc(C)c(N(C)c2ccnc(Nc3cc(N4CCOCC4)nc(N4CCC(O)CC4)c3)n2)c1` [Example 5.2, 1-(4-(4-((5-methoxy-2-methylphenyl)(methyl)amino)pyrimidin-2-ylamino)-6-morpholinopyridin-2-yl)piperidin-4-ol], the IC50 in assay [1] (setting [4]) is 3.25 nM.

Turning to `CN(c1ccnc(Nc2cc(Cl)nc(N3CCOCC3)c2)n1)c1ccc(F)c(Cl)c1F` [Example 2.3, N′-(3-chloro-2,4-difluoro-phenyl)-N-(2-chloro-6-morpholin-4-yl-pyridin-4-yl)-N′-methyl-pyrimidine-2,4-diamine], the IC50 in assay [1] (setting [3]) is 1780 nM. Consider `CN(c1ccnc(Nc2cc(N3CCOCC3)nc(N3CCOCC3)n2)n1)c1ccc(F)c(Cl)c1F` [Example 2.4, N′-(3-chloro-2,4-difluoro-phenyl)-N-(2,6-dimorpholin-4-ylpyrimidin-4-yl)-N′-methyl-pyrimidine-2,4-diamine], for which, in assay [1] (setting [3]), the IC50 stood at 6270 nM.

For the compound `COc1ccc(C)c(N(C)c2ccnc(Nc3cc(N4CCOCC4)nc(N4CCN(C)CC4)c3)n2)c1` [Example 5.1, N4-(5-methoxy-2-methylphenyl)-N4-methyl-N2-(2-(4-methylpiperazin-1-yl)-6-morpholinopyridin-4-yl)pyrimidine-2,4-diamine], the IC50 in assay [1] (setting [4]) came to 2.31 nM. On to `CN(c1ccnc(Nc2cc(N3CCOCC3)cc(N3CCOCC3)n2)n1)c1ccc(F)c(Cl)c1F` [Example 2.2, N′-(3-chloro-2,4-difluoro-phenyl)-N-(4,6-dimorpholin-4-ylpyridin-2-yl)-N′-methyl-pyrimidine-2,4-diamine], for which the half-maximal inhibitory concentration (IC50) in assay [1] (setting [3]) was 808 nM. Regarding `CN(c1ccnc(Nc2cc(Cl)cc(N3CCOCC3)n2)n1)c1ccc(F)c(Cl)c1F` [Example 1, N′-(3-chloro-2,4-difluoro-phenyl)-N-(4-chloro-6-morpholin-4-yl-pyridin-2-yl)-N′-methyl-pyrimidine-2,4-diamine], the concentration for half-maximal inhibition (IC50) came to 38300 nM in assay [1] (setting [3]) and 354 nM in assay [2].

As for `Cc1ccc(CO)cc1N(C)c1ccnc(Nc2cc(Cl)cc(N3CCOCC3)n2)n1` [Example 3, [3-[[2-[(4-chloro-6-morpholin-4-yl-pyridin-2-yl)amino]pyrimidin-4-yl]-methyl-amino]-4-methyl-phenyl]methanol], the IC50 in assay [1] (setting [3]) stood at 198 nM; in assay [2], 28 nM.

For the compound `Cc1ccc(CO)cc1N(C)c1ccnc(Nc2cc(N3CCOCC3)cc(N3CCOCC3)n2)n1` [Example 4.2, [3-[[2-[(4,6-dimorpholin-4-ylpyridin-2-yl)amino]pyrimidin-4-yl]-methyl-amino]-4-methyl-phenyl]methanol], the IC50 was 456 nM in assay [1] (setting [3]) and 302 nM in assay [2].
